{"source": "paper PMC8492687", "about": "“An ethylene biosynthesis enzyme controls quantitative variation in maize ear length and kernel yield” (Nature Communications, 2021)", "molecular_target": "T1, ZmACO2 (Zea mays, UniProt A0A804UDP7)", "T1 construct": "gene LOC100382364", "T1 sequence (A0A804UDP7 1-326)": "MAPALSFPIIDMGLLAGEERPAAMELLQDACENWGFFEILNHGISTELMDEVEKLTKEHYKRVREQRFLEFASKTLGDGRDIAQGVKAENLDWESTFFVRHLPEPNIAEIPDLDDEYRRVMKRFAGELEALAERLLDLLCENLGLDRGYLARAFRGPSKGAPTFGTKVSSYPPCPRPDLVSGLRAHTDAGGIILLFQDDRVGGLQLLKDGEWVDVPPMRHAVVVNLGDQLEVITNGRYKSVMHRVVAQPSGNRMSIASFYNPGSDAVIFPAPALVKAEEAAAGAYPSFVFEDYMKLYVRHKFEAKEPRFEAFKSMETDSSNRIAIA", "experiment": "ethylene production by gas chromatography with flame-ionization detection", "type": "biochemical", "details": "5 mM ascorbate, 20 mM bicarbonate, 0.02 mM iron sulfate, 1 mM DTT, 10% glycerol, MOPS pH 7.2, 30 °C; ACC varied, Michaelis-Menten fit drawn", "data": [{"smiles": "NC1(C(=O)O)CC1", "note": "[ACC]", "values": [{"measurement": "ethylene production by gas chromatography with flame-ionization detection", "result": "The amount of ethylene production catalyzed by ZmACO2 increased exponentially up to an ACC concentration"}]}]}
